According to ChEMBL document CHEMBL5584269 (Bioorg Med Chem Lett, 2024):
Calls of active or inactive are those of the source. The rule behind the calls is not given here.

Columns and labels:
[1] = Selectivity ratio of EC50 for antileishmanial activity against Leishmania donovani amastigotes infected in human THP-1 cells to EC50 for cytotoxicity against human THP-1 cells; assay type: functional
Trypanosoma cruzi [2] = test: Antitrypanosomal activity against epimastigote form of Trypanosoma cruzi CL Brener assessed as reduction in parasite growth incubated for 72 hrs by alamar blue dye based fluorescence analysis; assay type: functional, organism-based
THP-1 = test: Cytotoxicity against human THP-1 cells incubated for 72 hrs by alamar blue cell viability assay; assay type: functional, cell-based; conditions: THP-1, 72 h
Leishmania donovani [3] = test: Antileishmanial activity against Leishmania donovani axenic amastigotes assessed as reduction in parasite growth incubated for 72 hrs by alamar blue dye based fluorescence analysis; assay type: functional, organism-based
Trypanosoma brucei [4] = test: Antitrypanosomal activity against bloodstream trypomastigote form of Trypanosoma brucei Lister 427 assessed as reduction in parasite growth incubated for 72 hrs by alamar blue dye based fluorescence analysis; assay type: functional, organism-based; conditions: Lister 427, 72 h
Leishmania major [5] = test: Antileishmanial activity against promastigote form of Leishmania major Freidlin assessed as reduction in parasite growth incubated for 72 hrs by alamar blue dye based fluorescence analysis; assay type: functional, organism-based
Leishmania donovani [6] = test: Antileishmanial activity against Leishmania donovani amastigotes infected in human THP-1 cells assessed as reduction in parasite growth incubated for 72 hrs by alamar blue dye based fluorescence analysis; assay type: functional, organism-based; conditions: THP-1, 72 h
Leishmania donovani [7] = test: Antileishmanial activity against promastigote form of Leishmania donovani assessed as reduction in parasite growth incubated for 72 hrs by alamar blue dye based fluorescence analysis; assay type: functional, organism-based
HeLa = test: Cytotoxicity against human HeLa cells incubated for 72 hrs by alamar blue cell viability assay; assay type: functional, cell-based
Trypanosoma cruzi [8] = test: Antitrypanosomal activity against epimastigote form of Trypanosoma cruzi CL Brener assessed as fold change in reduction of parasite growth incubated for 72 hrs by alamar blue dye based fluorescence analysis relative to miltefosine; assay type: functional
Leishmania major [9] = test: Antileishmanial activity against promastigote form of Leishmania major Freidlin assessed as morphological change at EC10 incubated for 48 hrs by DAPI staining based immunofluorescence analysis; assay type: functional, organism-based
Trypanosoma brucei [10] = test: Induction of morphological change in bloodstream trypomastigote form of Trypanosoma brucei Lister 427 assessed as appearance of swollen cells at EC10 incubated for 48 hrs by DAPI staining based immunofluorescence analysis; assay type: functional, organism-based
Trypanosoma brucei [11] = test: Induction of morphological change in bloodstream trypomastigote form of Trypanosoma brucei Lister 427 assessed as reduction in cytokinesis at EC10 incubated for 48 hrs by DAPI staining based immunofluorescence analysis; assay type: functional, organism-based

Structure (SMILES) | Ratio EC50 [1] | EC50 (Trypanosoma cruzi [2]) [µM] | EC50 (THP-1) [µM] | EC50 (Leishmania donovani [3]) [µM] | EC50 (Trypanosoma brucei [4]) [µM] | EC50 (Leishmania major [5]) [µM] | EC50 (Leishmania donovani [6]) [µM] | EC50 (Leishmania donovani [7]) [µM] | EC50 (HeLa) [µM] | fold change (FC) (Trypanosoma cruzi [8]) | Activity (Leishmania major [9]) | Activity (Trypanosoma brucei [10]) | Activity (Trypanosoma brucei [11])
COC(=O)[C@H]1CCCN1C(=O)CC(C)C | 50 | 37.1 | > 250 | 0.87 | 1.44 | 2.04 | 2.05 | 1.09 | > 250 | – | – | – | –
O=C(O)[C@@H]1CCCN1C(=O)Cc1ccccc1 | – | 46.5 | – | – | 40.8 | 14.5 | – | 13.8 | > 250 | – | – | – | –
N=C(N)c1ccc(OCCCCCOc2ccc(C(=N)N)cc2)cc1 [PENTAMIDINE] | – | – | – | – | 0.002 | – | – | – | – | – | – | – | –
C[C@H](CS)C(=O)N1CCC[C@H]1C(=O)O [CAPTOPRIL] | – | – | – | – | 22.9 | 12.4 | – | 9.41 | 130 | – | – | – | –
COC(=O)[C@@H]1CCCN1C(=O)C(C)(C)C | – | 66.4 | – | – | 58.3 | 14.5 | – | 17.1 | > 250 | – | – | – | –
COC(=O)[C@@H]1CCCN1C(=O)CCSCc1ccccc1 | 50 | 5.1 | > 250 | 0.91 | 6.9 | 1.24 | 4.98 | 1.18 | > 250 | 3 | inactive | Active | Active
COC(=O)[C@H]1CCCN1C(=O)Cc1ccccc1 | – | > 200 | – | – | > 200 | 101 | – | 95.2 | > 250 | – | – | – | –
O=C(O)[C@@H]1CCCN1C(=O)CCSCc1ccccc1 | – | 19.9 | – | – | 14.8 | 3.16 | – | 2.58 | 120 | – | – | – | –
O=C(O)[C@@H]1CCCN1C(=O)CCS | – | 20.8 | – | – | 28.4 | 9.88 | – | 7.15 | > 250 | – | – | – | –
COC(=O)[C@H]1CCCN1C(=O)C(C)C | – | 54.1 | – | – | 7.52 | 3.3 | – | 3.58 | > 250 | – | – | – | –
CC(C)(C)C(=O)N1CCC[C@@H]1C(=O)O | – | 80.2 | – | – | 106 | 48.1 | – | 41.2 | > 250 | – | – | – | –
C[C@H](CSCc1ccccc1)C(=O)N1CCC[C@H]1C(=O)O | – | 40.1 | – | – | 38.6 | 16.8 | – | 10.1 | > 250 | – | – | – | –
COC(=O)[C@@H]1CCCN1C(=O)CCSC | 50 | 19.5 | > 250 | 1.86 | 12.4 | 2.46 | 4.67 | 2.02 | > 250 | – | – | – | –
CC(C)C(=O)N1CCC[C@H]1C(=O)O | – | 61.5 | – | – | 12.2 | 5.52 | – | 8.07 | > 250 | – | – | – | –
COC(=O)[C@@H]1CCCN1C(=O)[C@H](C)CSC | – | 15.6 | – | – | 13.2 | 5.3 | – | 2.04 | > 250 | – | – | – | –
COC(=O)[C@H]1CCCN1C(=O)C(C)(C)C | – | 73.5 | – | – | 96.7 | 39.9 | – | 34.7 | > 250 | – | – | – | –
CC(C)CC(=O)N1CCC[C@@H]1C(=O)O | – | 39.6 | – | – | 1.92 | 2.77 | – | 1.42 | > 250 | – | – | – | –
COC(=O)[C@@H]1CCCN1C(=O)[C@H](C)CS | – | 22.7 | – | – | 15.2 | 7.29 | – | 2.81 | > 250 | – | – | – | –
